Laboratory results from US9957271B2, “Substituted bicyclic aza-heterocycles and analogues as sirtuin modulators” (GlaxoSmithKline, LLC, priority 2012, dated 2018).

Key:
SIRT1 [1] = target: T1, SIRT1 (Homo sapiens, UniProt Q96EB6); test: TAMRA based mass spectrometry assay of SIRT1 activity; assay type: biochemical; conditions: for Emax: read-out: TAMRA % Fold Act
T1 sequence (Q96EB6 1-747): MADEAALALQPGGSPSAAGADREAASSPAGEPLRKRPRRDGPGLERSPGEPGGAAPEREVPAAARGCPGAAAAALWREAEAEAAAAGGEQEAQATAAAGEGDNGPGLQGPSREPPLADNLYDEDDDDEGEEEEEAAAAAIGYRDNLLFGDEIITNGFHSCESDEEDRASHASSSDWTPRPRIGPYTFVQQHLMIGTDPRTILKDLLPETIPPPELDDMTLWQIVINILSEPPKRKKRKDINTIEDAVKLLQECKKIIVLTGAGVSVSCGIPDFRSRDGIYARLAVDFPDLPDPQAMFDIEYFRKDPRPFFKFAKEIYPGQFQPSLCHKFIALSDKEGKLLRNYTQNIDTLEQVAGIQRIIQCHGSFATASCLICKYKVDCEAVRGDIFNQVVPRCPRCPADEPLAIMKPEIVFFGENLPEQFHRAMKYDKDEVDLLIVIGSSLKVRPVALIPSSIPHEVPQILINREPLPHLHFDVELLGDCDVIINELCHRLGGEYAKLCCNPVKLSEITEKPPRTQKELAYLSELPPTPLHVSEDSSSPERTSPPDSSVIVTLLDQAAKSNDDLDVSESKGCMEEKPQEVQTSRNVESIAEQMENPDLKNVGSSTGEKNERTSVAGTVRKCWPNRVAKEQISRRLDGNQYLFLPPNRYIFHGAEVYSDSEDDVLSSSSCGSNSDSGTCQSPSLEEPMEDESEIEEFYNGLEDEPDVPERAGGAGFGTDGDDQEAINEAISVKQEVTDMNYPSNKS
Method in brief: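 Deacetylation of a biotinylated, TAMRA-tagged p53-based peptide (0.5 μM) by 10 nM His-tagged SIRT1 with 120 μM βNAD+, 25 °C for 25 min, pH 8 Tris-acetate buffer, across a compound concentration range. Quenched by formic acid and read by mass spec as product peptide or OAADPR; activity relative to DMSO reactions, nicotinamide defining maximal inhibition.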

SIRT1 [2] = target: T1, SIRT1; test: Trp mass spectrometry assay of SIRT1 activity; assay type: biochemical; conditions: for Emax: read-out: Trp % Fold Act
Method in brief: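 Activation readout: EC1.5 (concentration raising activity 50% over control) and percent maximum activation, from mass-spec quantitation of OAADPR or deacetylated Trp peptide. Reaction: 0.5 μM acetylated Trp peptide, 120 μM βNAD+, 10 nM bacterially expressed N-His SIRT1, pH 7.5 HEPES buffer with […], 25 min at 25° C.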

[3] = TAMRA assay, concentration giving 150% activation of SIRT1
[4] = TAMRA assay, percent maximum fold activation
[5] = Trp assay, concentration giving 150% activation of SIRT1
[6] = Trp assay, percent maximum fold activation
[7] = TAMRA peptide substrate, concentration giving 150% activation of SIRT1
[8] = TAMRA peptide substrate, percent maximum fold activation
[9] = Trp peptide substrate, concentration giving 150% activation of SIRT1
[10] = Trp peptide substrate, percent maximum fold activation
[11] = concentration of test compound giving 150% activation of SIRT1, TAMRA peptide substrate
[12] = percent maximum fold activation of SIRT1, TAMRA peptide substrate
[13] = concentration of test compound giving 150% activation of SIRT1, Trp peptide substrate
[14] = percent maximum fold activation of SIRT1, Trp peptide substrate

| Compound | TAMRA EC1.5 (μM) (SIRT1 [1]; [3]) | Emax (SIRT1 [1]; [4]) [%] | Trp EC1.5 (μM) (SIRT1 [2]; [5]) | Emax (SIRT1 [2]; [6]) [%] | TAMRA EC1.5 (μM) (SIRT1 [1]; [11]) | Emax (SIRT1 [1]; [12]) [%] | Trp EC1.5 (μM) (SIRT1 [2]; [13]) | Emax (SIRT1 [2]; [14]) [%] | further results |
| --- | --- | --- | --- | --- | --- | --- | --- | --- | --- |
| Cc1cccc(NC(=O)c2c(C)nn3ccc(-c4ccccc4C(F)(F)F)nc23)n1 [Compound 628, 2-methyl-N-(6-methylpyridin-2-yl)-5-(2-(trifluoromethyl)phenyl)pyrazolo[1,5-a]pyrimidine-3-carboxamide] | A (EC1.5<1 μM) | ≥ 350 | A (EC1.5<1 μM) | ≥ 350 |  |  |  |  |  |
| Cc1cc(C)nc(NC(=O)c2cnc3ccc(N4CC[C@@H](N(C)C)C4)nn23)c1 [Compound 513] |  |  |  |  |  |  |  |  | TAMRA EC1.5 (SIRT1 [1]; [7]): B (EC1.5 1-25 μM); Emax (SIRT1 [1]; [8]): < 350%; Trp EC1.5 (SIRT1 [2]; [9]): C (EC1.5>25 μM); Emax (SIRT1 [2]; [10]): < 350% |
| Cc1cc(C)nc(NC(=O)c2cnn3ccc(-c4ccccc4C(F)(F)F)nc23)n1 [Compound 806] | A (EC1.5<1 μM) | ≥ 350 | B (EC1.5 1-25 μM) | ≥ 350 |  |  |  |  |  |
| Cc1cc(C)nc(C(=O)Nc2cnn3ccc(-c4ccccc4C(F)(F)F)nc23)c1 [Compound 524] |  |  |  |  |  |  |  |  | TAMRA EC1.5 (SIRT1 [1]; [7]): A (EC1.5<1 μM); Emax (SIRT1 [1]; [8]): ≥ 350%; Trp EC1.5 (SIRT1 [2]; [9]): C (EC1.5>25 μM); Emax (SIRT1 [2]; [10]): < 350% |
| O=C(Nc1cccc(N2CCOCC2)n1)c1cnc2ccc(N3CCC(F)(F)C3)nn12 [Compound 489] |  |  |  |  |  |  |  |  | TAMRA EC1.5 (SIRT1 [1]; [7]): B (EC1.5 1-25 μM); Emax (SIRT1 [1]; [8]): < 350%; Trp EC1.5 (SIRT1 [2]; [9]): A (EC1.5<1 μM); Emax (SIRT1 [2]; [10]): ≥ 350% |
| O=C(Nc1ccnc(N2CCC2)c1)c1cnc2ccc(-c3c(F)cccc3F)nn12 [Compound 170] |  |  |  |  | A (EC1.5<1 μM) | < 350 | B (EC1.5 1-25 μM) | < 350 |  |
| Cc1nc(NC(=O)c2c(C)nc3c(C)cc(-c4ccccc4C(F)(F)F)nn23)sc1C [Compound 457] |  |  |  |  |  |  |  |  | TAMRA EC1.5 (SIRT1 [1]; [7]): A (EC1.5<1 μM); Emax (SIRT1 [1]; [8]): ≥ 350%; Trp EC1.5 (SIRT1 [2]; [9]): A (EC1.5<1 μM); Emax (SIRT1 [2]; [10]): < 350% |
| O=C(Nc1cccc(CN2CCOCC2)n1)c1cnc2ccc(-c3cccc(Cl)c3F)nn12 [Compound 140] |  |  |  |  | A (EC1.5<1 μM) | ≥ 350 | B (EC1.5 1-25 μM) | < 350 |  |
| O=C(Nc1ccnc(N2CCC2)c1)c1cnc2ccc(-c3ccccc3F)nn12 [Compound 134] |  |  |  |  | A (EC1.5<1 μM) | ≥ 350 | C (EC1.5>25 μM) | < 350 |  |

Now from value to molecule, other results behind:

| TAMRA EC1.5 (μM) (SIRT1 [1]; [3]) | Emax (SIRT1 [1]; [4]) [%] | Trp EC1.5 (μM) (SIRT1 [2]; [5]) | Emax (SIRT1 [2]; [6]) [%] | TAMRA EC1.5 (μM) (SIRT1 [1]; [11]) | Emax (SIRT1 [1]; [12]) [%] | Trp EC1.5 (μM) (SIRT1 [2]; [13]) | Emax (SIRT1 [2]; [14]) [%] | Compound | further results |
| --- | --- | --- | --- | --- | --- | --- | --- | --- | --- |
|  |  |  |  | A (EC1.5<1 μM) | ≥ 350 | A (EC1.5<1 μM) | ≥ 350 | Cc1csc(NC(=O)c2cnc3ccc(-c4ccccc4C(F)(F)F)nn23)n1 [Compound 152] |  |
| A (EC1.5<1 μM) | ≥ 350 | C (EC1.5>25 μM) | < 350 |  |  |  |  | Cc1ccnc(C(=O)Nc2cnc3ccc(-c4ccccc4C(F)(F)F)nn23)c1 [Compound 233] |  |
| B (EC1.5 1-25 μM) | < 350 | B (EC1.5 1-25 μM) | ≥ 350 |  |  |  |  | CCn1nccc1NC(=O)c1c(C)nc2ccc(-c3ccccc3C(F)(F)F)nn12 [Compound 674] |  |
| B (EC1.5 1-25 μM) | < 350 | A (EC1.5<1 μM) | < 350 |  |  |  |  | O=C(Nc1ccc(F)cn1)c1cnc2ccc(-c3ccccc3OC(F)(F)F)nn12 [Compound 360] |  |
| B (EC1.5 1-25 μM) | < 350 | C (EC1.5>25 μM) | < 350 |  |  |  |  | N#Cc1ccccc1-c1ccc2ncc(NC(=O)c3cnccn3)n2n1 [Compound 329] |  |
| A (EC1.5<1 μM) | ≥ 350 | A (EC1.5<1 μM) | < 350 |  |  |  |  | N#Cc1ccccc1-c1ccc2ncc(NC(=O)c3cccc(N4CCC4)n3)n2n1 [Compound 338] |  |
|  |  |  |  | C (EC1.5>25 μM) | < 350 | C (EC1.5>25 μM) | < 350 | O=C(Nc1cnccc1N1CCOCC1)c1cnc2ccc(-c3ccccc3C(F)(F)F)nn12 [Compound 177] |  |
|  |  |  |  | A (EC1.5<1 μM) | ≥ 350 | B (EC1.5 1-25 μM) | ≥ 350 | O=C(Nc1cnc2ccc(-c3ccccc3C(F)(F)F)nn12)c1cncc(N2CCOCC2)n1 [Compound 120] |  |
